Converted amounts (≈) assume the structure as drawn. One block for each molecule: values may come before it. Starred links: 1 amine or outer side, 2 acyl side, 3 side chain; linkers in the order of their positions; H or OH if unused. Non-standard residues stand in square brackets, D forms with d. Residues, ends and D or L forms follow the SMILES beside them. Groups on a side chain read outwards from the residue. Primed or numbered codes have the meaning given here. ξ: configuration not given here. *: point of attachment. γGlu = O=C(O)[C@H](CCC(=O)[*:2])N[*:1]; αMeF = C[C@](N)(Cc1ccccc1)C(=O)O; ξαMeF = CC(N)(Cc1ccccc1)C(=O)O; αMeK = C[C@](N)(CCCCN)C(=O)O; Lauroyl = CCCCCCCCCCCC(=O)*; ξαMeK = CC(N)(CCCCN)C(=O)O; PEG2′ = not defined here; ξαMeS = CC(N)(CO)C(=O)O; AEEA = NCCOCCOCC(=O)O; Aib = CC(C)(N)C(=O)O
Assays:
[1] = physchem
Excerpt: A known amount of the permeation enhancer, the peptide, or both were combined with increasing amounts of buffer until the permeation enhancer and/or the peptide were completely solubilized.

[2] = test system: Caco-2 cells; test: Caco-2 study, Permeability (%) of lipidated peptides (Example 3); assay type: in vitro ADME, human; details: 0.1 mg/mL peptide
Excerpt: The Caco-2 cell line is a continuous cell line of heterogeneous human epithelial colorectal adenocarcinoma cells, which when cultured under specific conditions, become differentiated and polarized such that their phenotype, morphologically and functionally, resembles the enterocytes lining the small intestine. Caco-2 cells express tight junctions, microvilli, and a number of enzymes and transporters that are characteristic of such enterocytes. Caco-2 cells are most commonly used as a tight junction monolayer that provides a physical and biochemical barrier to the passage of drugs and thus serves as an in vitro model of the human small intestinal mucosa to predict the absorption of orally administered drugs. Caco-2 permeability assays were performed by Cyprotex US, LLC (MA, USA) to assess the efficacy of different permeation enhancers. Caco-2 cells were grown on Transwell filters until a transepithelial electric resistance of ˜1000 ohms/cm^2 was achieved. The cells were incubated for three hours with media containing test samples on the apical (top) side of the cell layer, and with blank media on the basolateral (lower) side of the cell layer. Media from the apical and basolateral sides was collected separately after three hours and evaluated for the amount of peptide present on each side. Table 2 gives the permeability coefficient (Papp) of the various test samples, which include the SEQ ID NO:3 GLP-1 peptide in the presence of different excipients.
A following Caco-2 study was performed to evaluate the permeability of different peptides in the presence of various permeation enhancers. Permeability (%) was calculated by dividing the cumulative amount of molecules transported with the original loading amount. Concentrations of peptides in starting sample and apical and basal solutions after incubation for pre-determined periods were analyzed by HPLC. Sodium chenodeoxycholate at 25 mg/mL effected the highest permeability of each tested peptide (Table 4).

[3] = Canine site of absorption study, IntelliCap, SEQ ID NO:5 solution formulations (Example 11); assay type: in vivo, Beagle dogs; details: for bioavailability / AUC(0-t) / Cmax / Tmax: dog; for bioavailability: plasma; for AUC(0-t) / Cmax / Tmax: in vivo
Excerpt: The IntelliCap® system, an electronic oral drug delivery and monitoring device, was used to determine regional absorption for solution formulations. In the form of a capsule, the IntelliCap® incorporates a microprocessor, battery, pH sensor, temperature sensor, radio frequency (RF) wireless transceiver, fluid pump, and drug reservoir. The IntelliCap® system can determine the drug's position in the gastrointestinal (GI) tract by a pH monitoring sensor in the capsule, thereby eliminating the need for in vivo imaging. This system was employed to assess the site of absorption of GLP-1 peptide analogs in the GI tract following oral delivery to canines (Beagle dogs). Solution formulations without permeation enhancer excipients were used as intravenous (IV) and subcutaneous (SC) controls in the study. In brief, solution formulations were prepared and transferred to the IntelliCap® capsule which was dosed to canines, wherein the formulation was released at a specific site in the GI tract.
An additional site of absorption study was performed to evaluate the best site of absorption of the SEQ ID NO:5 GLP-1 peptide analog solution formulations after oral administration of IntelliCap capsules to canines (Beagle dogs). Delivery of the SEQ ID NO:5 peptide to the proximal small bowel (after pylorus passage), distal small bowel (before ileocecal passage), and proximal colon (after ileocecal passage) were studied.

[4] = 5.0 mg/mL Sodium Chenodeoxycholate
[5] = 25 mg/mL Sodium Chenodeoxycholate
[6] = Intravenous, 0.03 mg/kg, 0.3 mg/mL peptide in 50 mM Tris, 150 mM Mannitol, 0.02% PS80, pH 8.0
[7] = IntelliCap, Distal small bowel, 0.81 mg/kg, 12 mg/mL peptide, 25 mg/mL Na CDC, 12.5 mg/mL PG, pH 8.0
[8] = IntelliCap, Proximal colon, 0.85 mg/kg, 12 mg/mL peptide, 25 mg/mL Na CDC, 12.5 mg/mL PG, pH 8.0
[9] = IntelliCap, Proximal small bowel, 0.86 mg/kg, 12 mg/mL peptide, 25 mg/mL Na CDC, 12.5 mg/mL PG, pH 8.0
[10] = sc, Subcutaneous, 0.03 mg/kg, 0.3 mg/mL peptide in 50 mM Tris, 150 mM Mannitol, 0.02% PS80, pH 8.0

solubility ([1]; pH 5.5): >200000 µg/mL
Molecule: C[C@H](CCC(=O)[O-])[C@H]1CC[C@H]2[C@@H]3[C@H](O)C[C@@H]4C[C@H](O)CC[C@]4(C)[C@H]3CC[C@]12C.[Na+] [Sodium Chenodeoxycholate]

Permeability (%) [2, 4]: 1.7% | Permeability (%) [2, 5]: 11.6%
Molecule: CCCCCCCCCCCC(=O)N[C@@H](CCC(=O)NCCOCCOCC(=O)NCCOCCOCC(=O)NCCCC[C@H](NC(=O)[C@H](CC(=O)O)NC(=O)[C@H](CO)NC(=O)[C@@H](NC(=O)C(C)(Cc1ccccc1)NC(=O)[C@H](CO)NC(=O)CNC(=O)[C@H](CCC(=O)O)NC(=O)C(C)(C)NC(=O)[C@@H](N)Cc1c[nH]cn1)[C@@H](C)O)C(=O)N[C@@H](CO)C(=O)N[C@@H](CO)C(=O)N[C@@H](Cc1ccc(O)cc1)C(=O)N[C@@H](CC(C)C)C(=O)N[C@@H](CCC(=O)O)C(=O)NCC(=O)N[C@@H](CCC(=O)O)C(=O)N[C@@H](C)C(=O)N[C@@H](C)C(=O)NC(C)(CCCCN)C(=O)N[C@@H](CCC(=O)O)C(=O)N[C@@H](Cc1ccccc1)C(=O)N[C@H](C(=O)N[C@@H](CCCCNC(=O)COCCOCCNC(=O)COCCOCCNC(=O)CC[C@H](NC(=O)CCCCCCCCCCC)C(=O)O)C(=O)N[C@@H](Cc1c[nH]c2ccccc12)C(=O)N[C@H](C(=O)N[C@H](C(=O)N[C@@H](CCC(=O)O)C(=O)NCC(=O)NCC(N)=O)C(C)C)C(C)C)[C@@H](C)CC)C(=O)O (some centres unmarked) [SEQ ID NO: 8] (H-H[Aib]EGS[ξαMeF]TSDK([AEEA-AEEA-γGlu-Lauroyl])SSYLEGEAA[ξαMeK]EFIK([AEEA-AEEA-γGlu-Lauroyl])WVVEGG-NH2)

Permeability (%) [2, 4]: 3.1% | Permeability (%) [2, 5]: 13.9%
Molecule: CCCCCCCCCCCC(=O)N[C@@H](CCC(=O)NCCOCCOCC(=O)NCCOCCOCC(=O)NCCCC[C@H](NC(=O)[C@H](C)NC(=O)[C@@H](NC(=O)[C@H](Cc1ccccc1)NC(=O)[C@H](CCC(=O)O)NC(=O)C(C)(CCCCN)NC(=O)[C@H](C)NC(=O)[C@H](C)NC(=O)[C@H](CCC(=O)O)NC(=O)CNC(=O)[C@H](CCC(=O)O)NC(=O)[C@H](CCCCNC(=O)COCCOCCNC(=O)COCCOCCNC(=O)CC[C@H](NC(=O)CCCCCCCCCCC)C(=O)O)NC(=O)[C@H](Cc1ccc(O)cc1)NC(=O)[C@H](CO)NC(=O)C(C)(CO)NC(=O)[C@@H](NC(=O)[C@H](CC(=O)O)NC(=O)[C@H](CO)NC(=O)[C@@H](NC(=O)C(C)(Cc1ccccc1)NC(=O)[C@H](CO)NC(=O)CNC(=O)[C@H](CCC(=O)O)NC(=O)C(C)(C)NC(=O)[C@@H](N)Cc1c[nH]cn1)[C@@H](C)O)C(C)C)[C@@H](C)CC)C(=O)N[C@H](C(=O)N[C@H](C(=O)N[C@@H](CCC(=O)O)C(=O)NCC(=O)NCC(N)=O)C(C)C)C(C)C)C(=O)O (some centres unmarked) [SEQ ID NO: 9, Free-H-[AIB]-EGS-[αMePhe]-TSDV-[αMeSer]-SYK[(PEG2)2-γE-Lauroyl]-EGEAA-[αMeLys]-EFIAK[(PEG2)2-γE-Lauroyl]-VVEGG-amide] (H-H[Aib]EGS[ξαMeF]TSDV[ξαMeS]SYK([AEEA-AEEA-γGlu-Lauroyl])EGEAA[ξαMeK]EFIAK([AEEA-AEEA-γGlu-Lauroyl])VVEGG-NH2)

The next lines start with the molecule.

Molecule: CCCOC(=O)c1cc(O)c(O)c(O)c1 [Propyl Gallate]
solubility ([1]; pH 5, aqueous buffer, thermodynamic from solid): 3000 µg/mL (≈ 14.1 mM) | solubility ([1]; pH 6, aqueous buffer, thermodynamic from solid): 3000 µg/mL (≈ 14.1 mM) | solubility ([1]; pH 7): 3300 µg/mL (≈ 15.6 mM) | solubility as a function of pH (in words) ([1]; pH 7.5): low solubility at pH 7.5 and above | solubility ([1]; pH 7.5, aqueous buffer, thermodynamic from solid): < 250 µg/mL | solubility ([1]; pH 8, aqueous buffer, thermodynamic from solid): < 250 µg/mL | solubility ([1]; pH 9, aqueous buffer, thermodynamic from solid): < 250 µg/mL

Molecule: CC[C@H](C)[C@H](NC(=O)[C@H](Cc1ccccc1)NC(=O)[C@H](CCC(=O)O)NC(=O)[C@H](CCCCNC(=O)COCCOCCNC(=O)COCCOCCNC(=O)CC[C@H](NC(=O)CCCCCCCCCCCCCCCCC(=O)O)C(=O)O)NC(=O)[C@H](C)NC(=O)[C@H](C)NC(=O)[C@H](CCC(=O)O)NC(=O)CNC(=O)[C@H](CCC(=O)O)NC(=O)[C@H](CC(C)C)NC(=O)C(C)(Cc1ccccc1)NC(=O)[C@H](CO)NC(=O)C(C)(CO)NC(=O)[C@@H](NC(=O)[C@H](CC(=O)O)NC(=O)[C@H](CO)NC(=O)[C@@H](NC(=O)C(C)(Cc1ccccc1)NC(=O)[C@H](CO)NC(=O)CNC(=O)[C@H](CCC(=O)O)NC(=O)C(C)(C)NC(=O)[C@@H](N)Cc1c[nH]cn1)[C@@H](C)O)C(C)C)C(=O)N[C@@H](C)C(=O)NC(C)(Cc1ccccc1)C(=O)N[C@H](C(=O)N[C@H](C(=O)NC(C)(CCCCN)C(=O)NCC(=O)NCC(N)=O)C(C)C)C(C)C (stereo partly drawn) [SEQ ID NO: 4, Free-H-[AIB]-EGS-[αMePhe]-TSDV-[αMeSer]-S-[αMePhe]-LEGEAAK[(PEG2)2-γE-Stearate]-EFIA-[αMePhe]-VV-[αMeLys]-GG-amide]
Permeability (%) [2, 4]: 0% | Permeability (%) [2, 5]: 14.3%

Molecule: Free-H-[AIB]-EGS-[αMePhe]-TSDVSK[(PEG2)2-γE-Lauroyl]-YLEGEAA-[αMeLys]-EFIAWK[(PEG2)2-γE-Lauroyl]-VEGG-amide (H-H[Aib]EGS[αMeF]TSDVSK([PEG2′-PEG2′-γGlu-Lauroyl])YLEGEAA[αMeK]EFIAWK([PEG2′-PEG2′-γGlu-Lauroyl])VEGG-NH2) [SEQ ID NO: 7]
Permeability (%) [2, 4]: 2.1% | Permeability (%) [2, 5]: 10.3%

Molecule: CCCCCCCCCCCC(=O)N[C@@H](CCC(=O)NCCOCCOCC(=O)NCCOCCOCC(=O)NCCCC[C@H](NC(=O)[C@H](C)NC(=O)[C@@H](NC(=O)[C@H](Cc1ccccc1)NC(=O)[C@H](CCC(=O)O)NC(=O)C(C)(CCCCN)NC(=O)[C@H](C)NC(=O)[C@H](C)NC(=O)[C@H](CCC(=O)O)NC(=O)CNC(=O)[C@H](CCC(=O)O)NC(=O)[C@H](CC(C)C)NC(=O)[C@H](Cc1ccc(O)cc1)NC(=O)[C@H](CCCCNC(=O)COCCOCCNC(=O)COCCOCCNC(=O)CC[C@H](NC(=O)CCCCCCCCCCC)C(=O)O)NC(=O)[C@H](CO)NC(=O)[C@@H](NC(=O)[C@H](CC(=O)O)NC(=O)[C@H](CO)NC(=O)[C@@H](NC(=O)C(C)(Cc1ccccc1)NC(=O)[C@H](CO)NC(=O)CNC(=O)[C@H](CCC(=O)O)NC(=O)C(C)(C)NC(=O)[C@@H](N)Cc1c[nH]cn1)[C@@H](C)O)C(C)C)[C@@H](C)CC)C(=O)N[C@H](C(=O)N[C@H](C(=O)N[C@@H](CCC(=O)O)C(=O)NCC(=O)NCC(N)=O)C(C)C)C(C)C)C(=O)O (some centres unmarked) [SEQ ID NO: 5, Free-H-[AIB]-EGS-[αMePhe]-TSDVSK[(PEG2)2-γE-Lauroyl]-YLEGEAA-[αMeLys]-EFIAK[(PEG2)2-γE-Lauroyl]-VVEGG-amide]
Permeability (%) [2, 4]: 3.2% | Permeability (%) [2, 5]: 10.4% | bioavailability ([3]; Beagle, po, IntelliCap, Distal small bowel, 0.81 mg/kg, 12 mg/mL peptide, 25 mg/mL Na CDC, 12.5 mg/mL PG, pH 8.0): 0.3% | bioavailability ([3]; Beagle, po, IntelliCap, Proximal colon, 0.85 mg/kg, 12 mg/mL peptide, 25 mg/mL Na CDC, 12.5 mg/mL PG, pH 8.0): 2.6% | bioavailability ([3]; Beagle, po, IntelliCap, Proximal small bowel, 0.86 mg/kg, 12 mg/mL peptide, 25 mg/mL Na CDC, 12.5 mg/mL PG, pH 8.0): 0.5% | F [3, 6]: 100% | bioavailability ([3]; beagle, sc, Subcutaneous, 0.03 mg/kg, 0.3 mg/mL peptide in 50 mM Tris, 150 mM Mannitol, 0.02% PS80, pH 8.0): 87% | AUC(0-t) [3, 7]: 166 ng·h/mL | Cmax [3, 7]: 51 ng/mL | Tmax [3, 7]: 15 min | AUC(0-t) [3, 8]: 1500 ng·h/mL | Cmax [3, 8]: 301 ng/mL | Tmax [3, 8]: 15 min | AUC(0-t) [3, 9]: 297 ng·h/mL | Cmax [3, 9]: 75 ng/mL | Tmax [3, 9]: 15 min | AUC(0-t) [3, 6]: 2000 ng·h/mL | Cmax [3, 6]: 449 ng/mL | Tmax [3, 6]: 15 min | AUC(0-t) [3, 10]: 1770 ng·h/mL | Cmax [3, 10]: 144 ng/mL | Tmax [3, 10]: 240 min
